Assay results as given in US20110097274A1, “Carbon-11 and fluorine-18 labeled radioligands for positron emission tomography (PET) imaging for the brain serotonin transporters” (priority 2002, published 2011).
Where a name gives a salt, the structure may show the parent alone. Read-outs that look alike come from different tables or passages of the source.

Columns and labels:
[1] = In vitro logP measurement, octanol/phosphate buffer pH 7.4; type: physicochemical; settings: octanol/phosphate buffer pH 7.4, radiolabeled compound, mean ± SD, n = 8
Procedure: In vitro logP measurement: Octanol/water partition coefficient of the radiolabeled compounds were measured at Columbia University, using the method of Wilson et al. (2001), with some modifications. Briefly, 300 to 500 μCi of radioligand in EtOH was added to a separatory funnel containing octanol (20 mL) and phosphate buffer (20 mL, pH 7.4). The mixture was shaken mechanically for 3 minutes and the layers were separated. The octanol layer (15 mL) was transferred to a second separatory funnel containing 15 mL of the phosphate buffer (pH 7.4). The mixture was shaken mechanically for 3 minutes and the layers were separated. This second octanol layer was then partitioned into four test tubes (2 mL each) and the phosphate buffer (2 mL each) added. The test tubes were vortexed for 10 minutes, and then centrifuged for 10 minutes at 1000 rpm to separate the layers. The octanol and aqueous phases (1.0 mL each) were transferred into counting tubes and counted with a gamma counter (Wallac 1480 Wizard 3M Automatic Gamma Counter, Perkin-Elmer, Boston, Mass.). The radioactivity counts were decay-corrected and the partition coefficient calculated as P=counts in octanol/counts in buffer. Eight separate measurements were preformed for each tracer.

SERT [2] = target: SERT (Rattus norvegicus, UniProt P31652); assay: In vitro binding assay on rat frontal cortex homogenates using [^3H]paroxetine; parameters: from tissue; host or cells: frontal cortex of male Sprague-Dawley rats, washed membrane homogenate; settings: mean ± SD, n = 3
Procedure: In vitro binding assays: Measurement of the inhibition constants (Ki) of the labeled compounds in FIG. 1 on rat frontal cortex homogenates were performed at Columbia University using [^3H]paroxetine, as previously described (Laruelle et al., 1988b). Briefly, male Sprague-Dawley rats (250-300 g) were killed by decapitation. Dissection of the brain was carried out on ice and samples of the frontal cortex were stored at −40° C. until binding assay. After thawing, samples were homogenized in 10 volumes of buffer (50 mM Tris-HCl, pH 7.4, 120 mM NaCl and 5 mM KCl). The homogenates were centrifuged at 10,000 rpm for 10 minutes. Pellets were resuspended in 10 volumes of buffer, incubated at 37° C. for 10 minutes, and centrifuged again. This procedure was then repeated a third time.
For the binding assay, membranes were suspended in buffer at a final protein concentration of 5 mg/mL. Unlabelled drugs were dissolved in dimethyl sulfoxide (DMSO) in borosilicate glass tubes to yield a 1 mM stock solution, from which subsequent serial dilutions were performed with the buffer. Aliquots of tissue preparation were incubated with [^3H]paroxetine (0.1 nM) at 22° C. or 37° C. for 60 minutes in the absence or presence of unlabelled drug (10^−5 to 10^−12 M) to yield a final volume of 0.5 mL (borosilicate glass tubes). Nonspecific binding was defined by incubation with 10 μM of citalopram. Each concentration was performed in triplicates. After incubation, the mixture was rapidly filtered through Whatman GF/B glass fiber filters using a 48-channel cell harvester (Brandel, Gaithersburg, Md.). The filters were washed 3 times with 4 mL each of ice cold buffer, placed in vials with 4 mL Ultima Gold solvent (Packard Instrument Co., Downers Grove, Ill.), and counted the following day for radioactivity in a liquid scintillation counter (Tricarb 1500, Packard Instrument Co., Downers Grove, Ill.). This experiment was performed three times at 22° C. and 37° C., on three different days. Ki values were derived using GraphPad Prism software (San Diego, Calif.).

[3] = target: T1, serotonin transporter (SERT) (Rattus norvegicus, UniProt P31652); assay: In vitro binding affinity for SERT, radioligand [^3H]paroxetine (Table 1); parameters: species or system rat or human (cloned)
T1 construct: membranes prepared from either the rat cortical tissues or cells expressed with cloned-human transporters; from tissue; host or cells: rat cortical tissue membranes (inferred; the alternative is cells expressing cloned human SERT)
Procedure: (§1) Selected compounds were assayed in vitro for their binding affinity for the dopamine transporter (DAT), serotonin transporter (SERT), and norepinephrine transporter (NET) using membranes prepared from either the rat cortical tissues or cells expressed with cloned-human transporters and radioligands. Radioligands used were [^3H]paroxetine (SERT), [^3H]nisoxetine (NET), and [^3H]GBR12935 (DAT).

[4] = target: T2, dopamine transporter (DAT) (Homo sapiens, UniProt Q01959); assay: In vitro binding affinity for DAT, radioligand [^3H]GBR12935 (Table 1); parameters: species or system rat or human (cloned)
T2 construct: host or cells: either rat cortical tissue or cells expressing the cloned human transporter
Procedure: as §1

[5] = target: T3, norepinephrine transporter (NET) (Homo sapiens, UniProt P23975); assay: In vitro binding affinity for NET, radioligand [^3H]nisoxetine (Table 1); parameters: species or system rat or human (cloned)
T3 construct: host or cells: either rat cortical tissue or cells expressing the cloned human transporter
Procedure: as §1

[6] = Biodistribution of labeled radioligands in male Sprague-Dawley rats; type: in vivo; settings: mean ± SD, n = 3
Text: Appropriately labeled compounds were studied in animals to assess their binding characteristics in the brain. Procedures for these biodistribution studies are as follows. […] The brain regions (cerebellum, hippocampus, striatum, frontal cortex, thalamus and hypothalamus), along with samples of blood and part of the tail, were removed, weighed, and counted in a Packard Cobra II gamma counter. The percent injected dose (% ID) of the decay- and tail-corrected activity in the brain regions and blood were calculated based upon C-11 standards prepared from the injection solution, and the % ID/g were calculated using the tissue weights.

[7] = Experiment 5: plasma clearance of ^11C and ^18F labeled AFM, AFA, AFE in one baboon; type: in vivo; settings: one adult male baboon, n = 1 to 4 scans
Procedure: (§2) General scanning methods were as described in Huang et al. (2002). Arterial input function was measured and corrected for metabolites.

SERT [8] = assay: Experiment 5: PET brain imaging of ^11C and ^18F labeled AFM, AFA, AFE in one baboon; type: in vivo; settings: one adult male baboon, n = 1 to 4 scans, two-compartment model
Procedure: as §2
Activity distributed in the brain in accordance to the known density distribution pattern of SERT (Laruelle et al., 1988). […] Data were analyzed with a two-compartment model, using the metabolite-corrected arterial time-activity curve as input function. This analysis provided the regional distribution volumes (VT, mL/g).
The nonspecific distribution volume, measured as the distribution volume of the cerebellum (a region with negligible SERT density) was in a similar range for all tracers (10 to 30 mL/g, Table 16).
The specific to nonspecific partition coefficient, V3″, was calculated as the ratio of VT in the region of interest (ROI) to cerebellum VT minus one. V3″ provides a measure related to receptor parameters as follows: […]

[9] = 22° C., read-out: Ki for SERT at 22° C.
[10] = 37° C., read-out: Ki for SERT at 37° C.

SERT (Rattus norvegicus, UniProt P31652), sequence (P31652 whole entry): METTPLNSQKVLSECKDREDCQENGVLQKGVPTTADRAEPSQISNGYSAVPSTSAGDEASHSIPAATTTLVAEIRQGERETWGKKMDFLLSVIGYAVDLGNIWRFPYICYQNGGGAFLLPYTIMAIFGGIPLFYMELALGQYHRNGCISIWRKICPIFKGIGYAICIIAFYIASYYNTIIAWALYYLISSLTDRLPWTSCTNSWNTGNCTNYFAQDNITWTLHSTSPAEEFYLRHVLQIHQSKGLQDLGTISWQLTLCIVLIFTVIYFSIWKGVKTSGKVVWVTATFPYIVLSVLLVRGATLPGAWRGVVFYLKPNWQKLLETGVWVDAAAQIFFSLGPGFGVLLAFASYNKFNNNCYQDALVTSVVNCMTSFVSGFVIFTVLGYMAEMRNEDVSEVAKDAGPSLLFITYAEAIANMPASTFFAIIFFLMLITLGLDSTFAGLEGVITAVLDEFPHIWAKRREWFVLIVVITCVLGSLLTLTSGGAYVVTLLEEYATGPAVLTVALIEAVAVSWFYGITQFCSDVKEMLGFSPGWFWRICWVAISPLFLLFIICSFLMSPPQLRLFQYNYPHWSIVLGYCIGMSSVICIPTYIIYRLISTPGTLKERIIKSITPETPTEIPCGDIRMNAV
T3 sequence (P23975 whole entry, species assumed): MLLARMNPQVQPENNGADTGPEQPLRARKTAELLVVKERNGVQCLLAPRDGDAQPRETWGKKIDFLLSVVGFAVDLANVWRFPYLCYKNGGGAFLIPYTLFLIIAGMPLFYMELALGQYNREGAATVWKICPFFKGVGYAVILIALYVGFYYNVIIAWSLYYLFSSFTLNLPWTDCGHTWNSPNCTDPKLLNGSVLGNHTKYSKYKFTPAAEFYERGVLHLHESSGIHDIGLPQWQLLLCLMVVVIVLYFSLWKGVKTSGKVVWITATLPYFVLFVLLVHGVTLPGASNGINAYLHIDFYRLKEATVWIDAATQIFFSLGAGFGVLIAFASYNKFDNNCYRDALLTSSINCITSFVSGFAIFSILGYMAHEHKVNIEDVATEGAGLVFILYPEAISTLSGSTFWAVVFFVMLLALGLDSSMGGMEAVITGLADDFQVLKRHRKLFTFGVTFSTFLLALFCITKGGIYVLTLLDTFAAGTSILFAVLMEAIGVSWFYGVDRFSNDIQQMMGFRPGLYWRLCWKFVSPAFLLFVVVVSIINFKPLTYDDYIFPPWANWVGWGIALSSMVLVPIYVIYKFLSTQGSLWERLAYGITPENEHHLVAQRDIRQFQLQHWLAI
T2 sequence (Q01959 whole entry, species assumed): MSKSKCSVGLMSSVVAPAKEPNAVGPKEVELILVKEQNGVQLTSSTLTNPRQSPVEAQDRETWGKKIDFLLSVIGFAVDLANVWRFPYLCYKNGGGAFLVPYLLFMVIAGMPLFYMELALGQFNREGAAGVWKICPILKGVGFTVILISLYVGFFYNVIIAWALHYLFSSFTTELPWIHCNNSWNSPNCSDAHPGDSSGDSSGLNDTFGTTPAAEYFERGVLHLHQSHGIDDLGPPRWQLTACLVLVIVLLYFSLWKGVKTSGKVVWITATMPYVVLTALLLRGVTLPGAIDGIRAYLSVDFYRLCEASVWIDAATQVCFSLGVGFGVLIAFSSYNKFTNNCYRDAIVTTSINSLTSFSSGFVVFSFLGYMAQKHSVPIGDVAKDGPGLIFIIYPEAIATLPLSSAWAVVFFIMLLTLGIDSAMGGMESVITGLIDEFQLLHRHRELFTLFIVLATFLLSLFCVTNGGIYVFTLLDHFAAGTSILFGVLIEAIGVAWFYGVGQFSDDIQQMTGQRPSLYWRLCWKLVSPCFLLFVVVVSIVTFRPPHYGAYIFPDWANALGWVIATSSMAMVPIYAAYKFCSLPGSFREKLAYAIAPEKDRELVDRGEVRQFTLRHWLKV
T1 sequence (P31652 whole entry): as the sequence (P31652 whole entry) above

CN(C)Cc1ccccc1Sc1ccc(Br)cc1N [DAPA, 5-bromo-2-{2[(dimethylamino)methyl]phenylthio}phenylamine]
logP [1]: 3.06 ± 0.12 | Ki (SERT [2]; [9]): 0.38 ± 0.24 nM | Ki (SERT [2]; [10]): 0.33 ± 0.13 nM

CN(C)Cc1ccccc1Sc1ccc(CF)cc1N [AFM, 2-(2-(Dimethylaminomethyl)phenylthio)-5-fluoromethylphenylamine]
Ki [3]: 0.23 nM | Ki [4]: > 10000 nM | Ki [5]: 664 nM | logP [1]: 2.44 ± 0.03 | Ki (SERT [2]; [9]): 0.23 ± 0.04 nM | Ki (SERT [2]; [10]): 0.42 ± 0.12 nM

CNCc1ccccc1Sc1ccc(F)cc1N (as salt: tartrate) [Example 41, 5-Fluoro-2-(2-(methylaminomethyl)phenylthio)phenylamine]
melting point: 106 to 108 °C

CN(C)Cc1ccccc1Sc1ccc([18F])cc1N [[^18F]AFA, [^18F]2-[2-(Dimethylaminomethyl)phenylthio]-5-fluorophenylamine]
% ID/g Blood ([6]; 10 min post-injection): 0.27 ± 0.01 % ID/g | % ID/g Cerebellum ([6]; 10 min post-injection): 0.38 ± 0.09 % ID/g | % ID/g Frontal Ctx. ([6]; 10 min post-injection): 0.81 ± 0.26 % ID/g | % ID/g Hippocamp. ([6]; 10 min post-injection): 0.54 ± 0.17 % ID/g | % ID/g Hypothal. ([6]; 10 min post-injection): 0.73 ± 0.26 % ID/g | % ID/g Striatum ([6]; 10 min post-injection): 0.65 ± 0.18 % ID/g | % ID/g Thalamus ([6]; 10 min post-injection): 0.72 ± 0.24 % ID/g | % ID/g Blood ([6]; 30 min post-injection): 0.16 ± 0.01 % ID/g | % ID/g Cerebellum ([6]; 30 min post-injection): 0.20 ± 0.01 % ID/g | % ID/g Frontal Ctx. ([6]; 30 min post-injection): 0.65 ± 0.08 % ID/g | % ID/g Hippocamp. ([6]; 30 min post-injection): 0.48 ± 0.02 % ID/g | % ID/g Hypothal. ([6]; 30 min post-injection): 0.66 ± 0.05 % ID/g | % ID/g Striatum ([6]; 30 min post-injection): 0.58 ± 0.05 % ID/g | % ID/g Thalamus ([6]; 30 min post-injection): 0.69 ± 0.03 % ID/g | % ID/g Blood ([6]; 60 min post-injection): 0.09 ± 0.00 % ID/g | % ID/g Cerebellum ([6]; 60 min post-injection): 0.07 ± 0.01 % ID/g | % ID/g Frontal Ctx. ([6]; 60 min post-injection): 0.28 ± 0.05 % ID/g | % ID/g Hippocamp. ([6]; 60 min post-injection): 0.23 ± 0.04 % ID/g | % ID/g Hypothal. ([6]; 60 min post-injection): 0.38 ± 0.03 % ID/g | % ID/g Striatum ([6]; 60 min post-injection): 0.26 ± 0.02 % ID/g | % ID/g Thalamus ([6]; 60 min post-injection): 0.34 ± 0.05 % ID/g | % ID/g Blood ([6]; 90 min post-injection): 0.08 ± 0.01 % ID/g | % ID/g Cerebellum ([6]; 90 min post-injection): 0.05 ± 0.01 % ID/g | % ID/g Frontal Ctx. ([6]; 90 min post-injection): 0.20 ± 0.02 % ID/g | % ID/g Hippocamp. ([6]; 90 min post-injection): 0.18 ± 0.01 % ID/g | % ID/g Hypothal. ([6]; 90 min post-injection): 0.30 ± 0.06 % ID/g | % ID/g Striatum ([6]; 90 min post-injection): 0.19 ± 0.01 % ID/g | % ID/g Thalamus ([6]; 90 min post-injection): 0.23 ± 0.05 % ID/g | % ID/g Blood ([6]; 120 min post-injection): 0.07 ± 0.01 % ID/g | % ID/g Cerebellum ([6]; 120 min post-injection): 0.04 ± 0.00 % ID/g | % ID/g Frontal Ctx. ([6]; 120 min post-injection): 0.11 ± 0.02 % ID/g | % ID/g Hippocamp. ([6]; 120 min post-injection): 0.10 ± 0.01 % ID/g | % ID/g Hypothal. ([6]; 120 min post-injection): 0.17 ± 0.01 % ID/g | % ID/g Striatum ([6]; 120 min post-injection): 0.11 ± 0.02 % ID/g | % ID/g Thalamus ([6]; 120 min post-injection): 0.16 ± 0.02 % ID/g | Clearance [7]: 68 L/h | Cerebellum V (nonspecific distribution volume) (SERT [8]): 24 mL/g

CN([11CH3])Cc1ccccc1Sc1ccc(F)cc1N [[^11C]AFA, [^11C]2-[2-(Dimethylaminomethyl)phenylthio]-5-fluorophenylamine]
% ID/g Blood ([6]; 10 min post-injection): 0.26 ± 0.10 % ID/g | % ID/g Cerebellum ([6]; 10 min post-injection): 0.35 ± 0.12 % ID/g | % ID/g Frontal Ctx. ([6]; 10 min post-injection): 0.70 ± 0.25 % ID/g | % ID/g Hippocamp. ([6]; 10 min post-injection): 0.48 ± 0.17 % ID/g | % ID/g Hypothal. ([6]; 10 min post-injection): 0.55 ± 0.18 % ID/g | % ID/g Striatum ([6]; 10 min post-injection): 0.54 ± 0.18 % ID/g | % ID/g Thalamus ([6]; 10 min post-injection): 0.60 ± 0.24 % ID/g | % ID/g Blood ([6]; 30 min post-injection): 0.08 ± 0.01 % ID/g | % ID/g Cerebellum ([6]; 30 min post-injection): 0.14 ± 0.02 % ID/g | % ID/g Frontal Ctx. ([6]; 30 min post-injection): 0.49 ± 0.06 % ID/g | % ID/g Hippocamp. ([6]; 30 min post-injection): 0.34 ± 0.02 % ID/g | % ID/g Hypothal. ([6]; 30 min post-injection): 0.47 ± 0.06 % ID/g | % ID/g Striatum ([6]; 30 min post-injection): 0.38 ± 0.14 % ID/g | % ID/g Thalamus ([6]; 30 min post-injection): 0.44 ± 0.05 % ID/g | % ID/g Blood ([6]; 60 min post-injection): 0.06 ± 0.01 % ID/g | % ID/g Cerebellum ([6]; 60 min post-injection): 0.09 ± 0.02 % ID/g | % ID/g Frontal Ctx. ([6]; 60 min post-injection): 0.29 ± 0.05 % ID/g | % ID/g Hippocamp. ([6]; 60 min post-injection): 0.24 ± 0.03 % ID/g | % ID/g Hypothal. ([6]; 60 min post-injection): 0.42 ± 0.06 % ID/g | % ID/g Striatum ([6]; 60 min post-injection): 0.26 ± 0.04 % ID/g | % ID/g Thalamus ([6]; 60 min post-injection): 0.39 ± 0.04 % ID/g | Clearance [7]: 54 ± 6 L/h | Cerebellum V (nonspecific distribution volume) (SERT [8]): 13 ± 3 mL/g
